Source: patent publication US20040009189A1, “Antimutagenic effects of ganoderma lucidum spores” (priority 2002, published 2004)
Where two headings read alike, the source gives them in different places. Marks after values point to notes of the source that are not given here.

Key:
[1] = Weight gain of the pregnant rats (embryotoxicity/teratogenicity study); type: in vivo; conditions: days 10-12 of pregnancy
Source text: (§1) To test the embryotoxicity and teratogenic effects of GASP, a rat model was used.
(§2) Healthy SD rats weighing between 200-250 g were selected and housed together overnight at a 2:1 ratio of females to males. Beginning on the next day, vaginal smears were examined each morning, and the date when sperm was found was considered day 0 of pregnancy.
(§3) The pregnant rats were randomly divided into 5 groups, 18 rats per group. […] The human clinical dose was four capsules per dose (each capsule containing 0.3 g of the GSAP), four times daily. The study was designed so that the low dose group was 428.6 mg/kg, medium dose group was 2143 mg/kg, and the high dose group was 4286 mg/kg (equivalent to 1, 5, and 10 times the human clinical dose, respectively, when calculated according to the respective body surface areas of the rat and human). During the 6-15 days of the pregnancy, the GASP was orally administered to the rats in the dosage groups at a volume of 1.5 ml/100 g through gavage. The positive control group was given aspirin (250 mg/kg) on days 10-12 of the pregnancy, at the volume of 1.0 ml/100 g orally by means of a stomach tube, while the negative control group was given the equivalent amount of distilled water orally through gavage.
All the pregnant rats were weighed once every 3 days, so as to adjust the dosage. […]

fetal rats [2] = experiment: Effects on early embryo development in pregnant rats; type: in vivo; conditions: aspirin 250 mg/kg oral, days 10-12 of pregnancy; 14 pregnant rats
Source text: as §1, §2, §3
All the pregnant rats were weighed once every 3 days, so as to adjust the dosage. On the day 20 of the pregnancy, the animals were sacrificed by dislocating the vertebra, and a cesarean was performed to obtain the fetal rats in order to check various indexes and for statistical analysis.

fetal rats [3] = experiment: Effects on fetal rat organogenesis (Bouins fixation, sectioning); parameters: species or system Sprague Dawley (SD) rats; conditions: female, Sprague-Dawley, in vivo
Source text: Approximately ⅓ of the fetal rats were removed per litter, fixed with Bouins solution and then manually sectioned, with the various internal organs being then observed under the dissecting microscope.

[4] = system: mice bone marrow cell chromosomal aberration induced by cyclophosphamide; conditions: 500 cells
Source text: The test used was the modified mice bone marrow cell micronucleus test as specified in “A Notice Concerning Issuance of the Revised Items of the ‘Health Food Functional Assessment Procedures and Testing Methods’,” a document from the Ministry of Public Health of the People's Republic of China, which is hereby incorporated by reference.
The mice were randomly divided by weight into 9 groups, 5 males and 5 females respectively per group. Animals in each group were given the following treatment:
The drug was prepared as a suspension of the required concentration in distilled water, and administered orally through tube at individual dosages of 0.2 mL/10 g of body weight. The negative control group was given distilled water of the equivalent volume through tube once a day for 30 days continuously. […] 4 hours before the mice were sacrificed they are given colchicine, and the bone marrow was extracted in order to prepare the chromosome samples in the routine way.
Samples from each group were observed. One hundred (100) metaphase cells per mouse were observed, and the chromosomal structures and the numbers of aberrations were recorded. Using SPSS for Windows 8.0 (t-test), a comparative analysis was made of the experimental data from the various dosage groups and the positive groups and tested to find out if there was any significant difference between the males and females within the group.

[5] = system: bone marrow cells of mice
Method: Male NIH mice weighing 22-25 g, provided by the Guangdong Provincial Animal Center for Medical Experiments, were used. […] Each group contained 5 mice. Dosages were administered once a day for 3 consecutive days, orally via gavage.
Distilled water was then added to adjust the suspension to the required concentration. The compound was orally administered through gavage at 0.4 ml/10 g of body weight. […] Twenty four (24) hours after the last administration the animals were sacrificed by dislocation of the cervical vertebra. The femur was then removed, the muscle stripped away, and the bone marrow flushed out using phosphate buffer, centrifuged, fixed hyponotically and the chromosome sample is prepared using methods routine in the art. It was then stained for 10 min using 10% Giemsa's stain (pH 6.8).
Well dispersed Metaphase cells were selected for observation under the oil immersion lens. One hundred (100) metaphase cells were observed per animal, the number of cells with chromosomal aberrations noted, and the chromosomal aberration rate calculated. The data obtained were analyzed statistically calculated using SPSS for Windows 8.0 (t-test).

[6] = CP 40 mg/kg alone (positive group), F
[7] = CP 40 mg/kg alone (positive group), M
[8] = CP 50 mg/kg alone (positive group 4), F
[9] = CP 50 mg/kg alone (positive group 4), M
[10] = positive control: cyclophosphamide 40 mg/kg oral, single administration, 500 cells counted

CC(=O)Oc1ccccc1C(=O)O [Aspirin, aspirin]
Net Weight Gain ([1]; aspirin 250 mg/kg oral): 47.8 ± 13.9 g | Net weight gain vs negative control group ([1]; aspirin 250 mg/kg, p<0.05): significantly lower than that of the negative control group | Mean no. survivors per litter (fetal rats [2]): 4.0* | No. of litters with dead fetuses (fetal rats [2]): 5 | No. surviving fetus (fetal rats [2]): 56 | Number of hydrocephalic fetal rats (fetal rats [3]): 2

O=P1(N(CCCl)CCCl)NCCCO1 (stereo not shown) [CP, cyclophosphamide]
Abberant Cell Count [4, 6]: 118 | Abnormality Rate [4, 6]: 1.2 | Cell Aberration Rate % [4, 6]: 23.6% | No. of Abnormalities Polyploid [4, 6]: 5 | No. of Abnormalities hyperploid [4, 6]: 1 | No. of Abormal Cells [4, 6]: 6 | crb (chromatid break) [4, 6]: 95 | csb (chromosome break) [4, 6]: 28 | csg (chromosome gap) [4, 6]: 0 | ctg (chromatid gap) [4, 6]: 16 | del (nullisomic) [4, 6]: 50 | dmin (dimicrobody) [4, 6]: 0 | f (fragment) [4, 6]: 60 | r (ring chromosome) [4, 6]: 0 | tr (triradial) [4, 6]: 21 | Abberant Cell Count [4, 7]: 108 | Abnormality Rate [4, 7]: 1.8 | Cell Aberration Rate % [4, 7]: 21.6% | No. of Abnormalities Polyploid [4, 7]: 6 | No. of Abnormalities hyperploid [4, 7]: 1 | No. of Abormal Cells [4, 7]: 9 | crb (chromatid break) [4, 7]: 94 | csb (chromosome break) [4, 7]: 19 | csg (chromosome gap) [4, 7]: 0 | ctg (chromatid gap) [4, 7]: 18 | del (nullisomic) [4, 7]: 47 | dmin (dimicrobody) [4, 7]: 0 | f (fragment) [4, 7]: 62 | r (ring chromosome) [4, 7]: 0 | tr (triradial) [4, 7]: 15 | Abberant Cell Count [4, 8]: 221 | Abnormality Rate [4, 8]: 2.0 | No. of Abnormalities Polyploid [4, 8]: 5 | No. of Abnormalities hyperploid [4, 8]: 5 | No. of Abormal Cells [4, 8]: 10 | crb (chromatid break) [4, 8]: 185 | csb (chromosome break) [4, 8]: 21 | csg (chromosome gap) [4, 8]: 0 | ctg (chromatid gap) [4, 8]: 18 | del (nullisomic) [4, 8]: 103 | dmin (dimicrobody) [4, 8]: 0 | f (fragment) [4, 8]: 117 | r (ring chromosome) [4, 8]: 0 | tr (triradial) [4, 8]: 32 | Abberant Cell Count [4, 9]: 198 | Abnormality Rate [4, 9]: 2.2 | No. of Abnormalities Polyploid [4, 9]: 9 | No. of Abnormalities hyperploid [4, 9]: 2 | No. of Abormal Cells [4, 9]: 11 | crb (chromatid break) [4, 9]: 170 | csb (chromosome break) [4, 9]: 33 | csg (chromosome gap) [4, 9]: 0 | ctg (chromatid gap) [4, 9]: 18 | del (nullisomic) [4, 9]: 92 | dmin (dimicrobody) [4, 9]: 0 | f (fragment) [4, 9]: 100 | r (ring chromosome) [4, 9]: 1 | tr (triradial) [4, 9]: 29 | Chromosomal aberration rate vs negative control group ([5]; CP 40 mg/kg, p<0.01): noticeably higher than that of the negative control group | Chromosomal Aberration Rate (%) [5, 10]: 25.0* % | No. aberrant cells [5, 10]: 115 | Type and Number of Aberration: I (chromosomal fragmentation) [5, 10]: 35 | Type and Number of Aberration: b (chromosomal breakage) [5, 10]: b(48) | Type and Number of Aberration: f (chromosal fusion) [5, 10]: 59
